Calls of active or inactive are those of the source.
Columns and labels:
[1] = viability loss in HepG2 liver cells – cell-based, ATP luminescence, cherry-pick, set 6, cytotoxicity control, dose response (AID 1053125); assay type: functional
cells [2] = conditions: A549
cells [3] = conditions: HEK293
[4] = viability of uninfected HEp-2 cells – cell-based, HTS, cytotoxicity control for RSV inhibitor project, dose response (AID 2410); assay type: functional; conditions: human respiratory syncytial virus
[5] = target: Metabotropic glutamate receptor 5 (Rattus norvegicus, UniProt P31424); assay: Identification of a glycine sulfonamide based non-MPEP site positive allosteric potentiator (PAM) of mGlu5 (calcium_assay).; assay type: functional
[6] = reduced cellular PGC1a acetyl-lysine signal – cell-based, cherry-picked samples, dose response (AID 720514); assay type: functional;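 also: potency may reflect raised or lowered acetylation signal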
Beta Lactamase = Beta Lactamase (Pseudomonas aeruginosa, UniProt Q932Y6); assay: BLA reporter interference, concentration series – BLA reporter cells, FRET fluorescence, artefact control for TLR9-MyD88 binding inhibitor project, dose response (AID 588341); assay type: cell-based;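 also: cell based assay in CHO-K1 cells stably expressing beta-lactamase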
[7] = Shn3 transcript knock-down in Clone20 cells – cell-based, qPCR, cherry-pick, dose response (AID 743415); assay type: functional
[8] = Trypanosoma cruzi growth suppression in host cells – NIH3T3 host cells, beta-gal luminescence, confirmation (AID 2044); assay type: functional, cell-based;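 also: intracellular parasites grown in NIH/3T3 mouse fibroblasts as host cells; luminescent beta-galactosidase reporter signal from transgenic T. cruzi replicating inside host cells; inhibitors lower the luminescence signal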
[9] = non-specific 3'UTR reporter inhibition in Clone20-Shn3RL – cell-based, Renilla luciferase, cherry-picked, counter-screen for Shn3 inhibitor project, dose response (AID 624133); assay type: functional
[10] = target: T1, Heat shock factor protein 1 (Mus musculus, UniProt P38532); assay: enhancement of HSF1-driven luciferase signal – cell-based, NIH3T3, luminescence, dose retest, confirmation (AID 435004); assay type: functional;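 also: stress induced by proteasome inhibitor MG132 added 30 min after compound; luciferase reporter driven by HSF1 response element in NIH3T3 cells; actives raise luminescence as potentiators of the MG132 stress response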
T1 sequence (P38532 whole entry): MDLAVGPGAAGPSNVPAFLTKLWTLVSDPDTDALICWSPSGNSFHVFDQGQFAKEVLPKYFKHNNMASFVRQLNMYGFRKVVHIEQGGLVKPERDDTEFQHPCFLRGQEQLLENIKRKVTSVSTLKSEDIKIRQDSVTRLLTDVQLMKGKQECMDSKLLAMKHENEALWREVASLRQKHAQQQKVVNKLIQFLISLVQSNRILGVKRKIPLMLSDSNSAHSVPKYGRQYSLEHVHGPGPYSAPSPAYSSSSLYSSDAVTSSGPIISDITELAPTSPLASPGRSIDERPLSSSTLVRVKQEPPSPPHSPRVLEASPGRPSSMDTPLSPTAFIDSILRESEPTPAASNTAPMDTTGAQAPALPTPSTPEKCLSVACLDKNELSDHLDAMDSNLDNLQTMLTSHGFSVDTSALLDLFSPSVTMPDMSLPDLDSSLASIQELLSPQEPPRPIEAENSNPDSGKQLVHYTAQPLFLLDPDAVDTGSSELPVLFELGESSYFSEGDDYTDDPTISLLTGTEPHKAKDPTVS

[11] = target: Bifunctional protein GlmU (Mycobacterium tuberculosis, UniProt P9WMN3); assay: Inhibitors of Mycobacterial Glucosamine-1-phosphate acetyl transferase (GlmU). Secondary screen.; set-up: species or system Mycobacterium tuberculosis H37Rv
[12] = loss of viability in HepG2 cells – cell-based, CellTiter-Glo, cherry-picked, cytotoxicity control for Shn3 inhibitor project, dose response (AID 624134); assay type: functional
CHO = CHO cell viability loss, potency – luminescence, cytotoxicity control for TLR9-MyD88 binding inhibitor project, dose response (AID 588339); assay type: functional, cell-based, hamster; conditions: Cricetulus griseus;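 also: CHO cells stably coexpressing TLR9 and MyD88 fusions from primary screen; compound exposure lasted 48 hours before viability readout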
[13] = NIH3T3 cell viability loss – ATP luminescence, mouse fibroblasts, counter-screen, dose response (AID 2010); assay type: functional, cell-based;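 also: cells exposed to compound for about 90 hours before reading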
[14] = reduction of Shn3 3'UTR-driven luciferase in osteoblasts – cell-based, Clone20 osteoblasts, firefly luciferase, cherry-picked, dose response (AID 624132); assay type: functional;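 also: firefly luciferase luminescence from reporter carrying the Shn3 3'UTR in osteoblasts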
Large T antigen = Large T antigen (Simian virus 40, UniProt P03070); assay type: functional, Betapolyomavirus macacae;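 also: Confirmatory-stage PubChem screen for compounds that inhibit SV40 T antigen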
[15] = EF1alpha-driven Renilla reporter with control 3'UTR suppression – Clone20-Shn3RL cells, dual-Glo, cherry-pick, set 2, counter-screen for Shn3 3'UTR targeting project, dose response (AID 720724); assay type: functional, cell-based; conditions: Dual-Go Shn3RL
[16] = Shn3 3'UTR reporter signal decrease – cell-based, Clone20 osteoblasts, firefly luciferase, cherry-pick, set 2, Schnurri-3 inhibitor project, dose response (AID 720490); assay type: functional;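 also: actives lower the luminescence signal as inhibitors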
[17] = potency of ADAM10 substrate cleavage blockers – biochemical, QFRET, dose response (AID 743254);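 also: ADAM10 enzyme with the DM2 quenched FRET peptide as substrate; EDANS fluorescence gain as the protease cuts the substrate; inhibitor potency against ADAM10 proteolytic activity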
[18] = target: Disintegrin and metalloproteinase domain-containing protein 17 (Homo sapiens, UniProt P78536); assay: inhibition of ADAM17 substrate cleavage – biochemical, quenched FRET substrate, counter-screen for ADAM10 exosite inhibitor project, dose response (AID 743253)
[19] = CTGF mRNA reduction in DLD1 cells – cell-based, DLD1 colon cancer, RT-qPCR, cherry-pick, dose response (AID 1053122); assay type: functional; conditions: Cancer cell lines
[20] = target: Protein disulfide-isomerase (Homo sapiens, UniProt P07237); assay: inhibition of PDI-mediated insulin reduction – biochemical, turbidity, dry powder samples, set 2, confirmation (AID 652146)
[21] = loss of viability in embryonic kidney cells – cell-based, HEK293T, ATP luminescence, dry powder, cytotoxicity control, dose response (AID 652119); assay type: functional; conditions: HEK293
[22] = inhibitors of non-replicating M. tuberculosis, dose response, luciferase, dry powder (AID 651619); assay type: functional; conditions: Mycobacterium tuberculosis
[23] = inhibitors of non-replicating M. tuberculosis, dose response, luciferase, dry powder (AID 651620); assay type: functional; conditions: Mycobacterium tuberculosis

Sequence of Protein disulfide-isomerase (P07237 whole entry): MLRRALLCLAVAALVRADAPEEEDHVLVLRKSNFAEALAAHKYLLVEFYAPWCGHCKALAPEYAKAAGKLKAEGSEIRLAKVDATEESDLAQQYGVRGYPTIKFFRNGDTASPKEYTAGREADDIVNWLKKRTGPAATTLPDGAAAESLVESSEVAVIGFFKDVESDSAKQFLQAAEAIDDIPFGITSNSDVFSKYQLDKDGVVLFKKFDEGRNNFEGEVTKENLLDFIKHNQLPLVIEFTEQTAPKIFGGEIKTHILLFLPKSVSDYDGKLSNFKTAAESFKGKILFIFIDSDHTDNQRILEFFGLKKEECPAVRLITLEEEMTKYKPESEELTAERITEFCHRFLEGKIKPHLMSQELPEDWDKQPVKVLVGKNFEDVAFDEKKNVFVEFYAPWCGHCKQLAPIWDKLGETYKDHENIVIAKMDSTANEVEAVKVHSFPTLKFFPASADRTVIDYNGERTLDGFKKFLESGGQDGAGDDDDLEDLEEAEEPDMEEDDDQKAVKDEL
Sequence of Metabotropic glutamate receptor 5 (P31424 whole entry): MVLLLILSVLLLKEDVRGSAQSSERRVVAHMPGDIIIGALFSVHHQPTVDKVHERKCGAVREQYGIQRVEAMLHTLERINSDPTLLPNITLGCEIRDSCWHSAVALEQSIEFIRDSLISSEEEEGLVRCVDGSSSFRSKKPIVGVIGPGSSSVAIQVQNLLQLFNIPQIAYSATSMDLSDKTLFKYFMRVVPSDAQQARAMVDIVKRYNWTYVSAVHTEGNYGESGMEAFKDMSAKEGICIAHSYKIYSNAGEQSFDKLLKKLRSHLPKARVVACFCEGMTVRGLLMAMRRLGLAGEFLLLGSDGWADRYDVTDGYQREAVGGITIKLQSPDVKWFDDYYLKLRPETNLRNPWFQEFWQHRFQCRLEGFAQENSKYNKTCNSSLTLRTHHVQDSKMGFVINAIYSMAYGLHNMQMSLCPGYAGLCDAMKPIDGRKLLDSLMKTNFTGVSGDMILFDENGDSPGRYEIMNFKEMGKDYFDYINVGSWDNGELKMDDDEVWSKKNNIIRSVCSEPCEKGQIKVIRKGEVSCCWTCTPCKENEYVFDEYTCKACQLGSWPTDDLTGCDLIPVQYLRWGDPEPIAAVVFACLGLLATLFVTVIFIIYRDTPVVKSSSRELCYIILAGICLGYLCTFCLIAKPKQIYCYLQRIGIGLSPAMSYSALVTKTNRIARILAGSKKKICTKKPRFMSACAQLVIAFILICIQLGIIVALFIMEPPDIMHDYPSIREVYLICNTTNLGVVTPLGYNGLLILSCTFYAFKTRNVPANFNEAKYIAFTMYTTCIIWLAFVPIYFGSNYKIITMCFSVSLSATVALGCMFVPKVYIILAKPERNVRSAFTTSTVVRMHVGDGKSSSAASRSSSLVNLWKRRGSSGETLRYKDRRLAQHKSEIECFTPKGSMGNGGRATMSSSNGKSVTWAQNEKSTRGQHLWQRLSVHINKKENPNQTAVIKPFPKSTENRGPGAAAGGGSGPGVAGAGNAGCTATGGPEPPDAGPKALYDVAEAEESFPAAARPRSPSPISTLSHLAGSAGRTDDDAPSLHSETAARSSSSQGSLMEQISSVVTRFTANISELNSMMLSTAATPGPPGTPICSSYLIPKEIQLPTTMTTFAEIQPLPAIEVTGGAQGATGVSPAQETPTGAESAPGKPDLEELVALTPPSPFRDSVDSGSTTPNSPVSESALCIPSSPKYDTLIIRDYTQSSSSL
Sequence of Large T antigen (P03070 whole entry): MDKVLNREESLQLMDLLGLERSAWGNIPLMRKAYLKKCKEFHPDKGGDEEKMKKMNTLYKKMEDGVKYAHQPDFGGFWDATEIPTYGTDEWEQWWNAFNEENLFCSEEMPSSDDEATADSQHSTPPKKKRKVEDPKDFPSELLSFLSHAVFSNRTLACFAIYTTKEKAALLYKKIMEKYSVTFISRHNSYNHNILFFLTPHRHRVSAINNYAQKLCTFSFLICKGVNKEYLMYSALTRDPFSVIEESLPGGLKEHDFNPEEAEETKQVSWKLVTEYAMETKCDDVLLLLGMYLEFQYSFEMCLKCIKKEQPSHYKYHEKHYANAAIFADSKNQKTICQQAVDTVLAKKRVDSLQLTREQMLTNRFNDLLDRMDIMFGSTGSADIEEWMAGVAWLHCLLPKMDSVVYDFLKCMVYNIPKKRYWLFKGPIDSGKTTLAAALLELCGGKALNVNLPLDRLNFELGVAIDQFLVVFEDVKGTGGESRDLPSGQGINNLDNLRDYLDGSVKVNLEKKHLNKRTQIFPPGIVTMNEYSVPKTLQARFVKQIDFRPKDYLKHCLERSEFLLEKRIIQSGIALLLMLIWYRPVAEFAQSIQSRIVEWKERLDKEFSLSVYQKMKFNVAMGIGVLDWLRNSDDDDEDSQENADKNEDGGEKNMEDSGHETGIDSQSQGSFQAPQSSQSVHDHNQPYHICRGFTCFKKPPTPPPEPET
Sequence of Bifunctional protein GlmU (P9WMN3 whole entry): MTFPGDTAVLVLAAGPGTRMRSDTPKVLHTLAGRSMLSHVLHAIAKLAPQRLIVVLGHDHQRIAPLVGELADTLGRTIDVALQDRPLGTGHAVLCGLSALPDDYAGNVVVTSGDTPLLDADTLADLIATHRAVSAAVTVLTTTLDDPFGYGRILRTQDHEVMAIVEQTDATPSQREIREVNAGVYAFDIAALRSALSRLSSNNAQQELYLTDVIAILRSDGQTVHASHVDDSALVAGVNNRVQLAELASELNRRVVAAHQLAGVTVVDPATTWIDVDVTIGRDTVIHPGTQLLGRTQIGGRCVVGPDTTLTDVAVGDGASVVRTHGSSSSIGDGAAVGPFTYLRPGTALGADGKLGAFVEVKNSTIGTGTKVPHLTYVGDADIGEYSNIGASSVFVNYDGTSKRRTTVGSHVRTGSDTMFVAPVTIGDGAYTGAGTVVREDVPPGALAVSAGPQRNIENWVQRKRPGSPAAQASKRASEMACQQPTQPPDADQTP
Sequence of Beta Lactamase (Q932Y6 whole entry): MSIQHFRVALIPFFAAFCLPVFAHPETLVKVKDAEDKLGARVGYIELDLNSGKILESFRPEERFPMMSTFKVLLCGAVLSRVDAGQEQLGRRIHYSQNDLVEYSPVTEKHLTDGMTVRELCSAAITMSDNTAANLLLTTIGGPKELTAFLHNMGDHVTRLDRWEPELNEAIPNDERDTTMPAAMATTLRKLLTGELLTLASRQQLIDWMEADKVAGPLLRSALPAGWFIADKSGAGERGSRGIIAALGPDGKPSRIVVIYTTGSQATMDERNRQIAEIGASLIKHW
Sequence of Disintegrin and metalloproteinase domain-containing protein 17 (P78536 whole entry, the tested form may be a part): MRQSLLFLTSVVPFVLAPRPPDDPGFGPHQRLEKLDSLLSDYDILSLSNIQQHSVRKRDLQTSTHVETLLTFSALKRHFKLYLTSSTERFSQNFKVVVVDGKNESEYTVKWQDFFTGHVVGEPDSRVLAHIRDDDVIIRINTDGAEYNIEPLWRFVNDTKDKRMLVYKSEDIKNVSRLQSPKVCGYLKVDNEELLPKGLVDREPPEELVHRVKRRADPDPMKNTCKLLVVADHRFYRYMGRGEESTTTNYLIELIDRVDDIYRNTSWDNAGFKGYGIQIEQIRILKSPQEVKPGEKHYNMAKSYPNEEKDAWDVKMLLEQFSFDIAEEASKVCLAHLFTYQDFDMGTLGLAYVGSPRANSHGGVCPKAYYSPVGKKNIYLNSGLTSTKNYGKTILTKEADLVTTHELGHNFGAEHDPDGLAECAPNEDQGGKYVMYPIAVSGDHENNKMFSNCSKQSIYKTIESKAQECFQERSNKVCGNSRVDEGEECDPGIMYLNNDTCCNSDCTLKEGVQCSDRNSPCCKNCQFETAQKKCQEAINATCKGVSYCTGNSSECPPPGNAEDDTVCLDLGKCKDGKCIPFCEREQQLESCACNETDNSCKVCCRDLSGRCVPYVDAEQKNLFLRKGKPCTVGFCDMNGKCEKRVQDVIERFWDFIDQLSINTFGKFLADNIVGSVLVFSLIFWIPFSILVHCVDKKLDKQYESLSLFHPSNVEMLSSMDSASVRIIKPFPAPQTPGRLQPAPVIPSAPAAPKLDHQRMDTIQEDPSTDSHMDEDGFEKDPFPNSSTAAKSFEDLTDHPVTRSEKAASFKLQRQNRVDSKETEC

CCN1CCc2c(sc(NC(=O)Nc3ccc(Cl)c(Cl)c3)c2C(N)=O)C1
AC50 [1]: 15.4 µM (active)
AC50 (cells [2]): 15.3 µM (active)
AC50 (cells [3]): 15.2 µM (active)
CC50 [4]: 10.4 µM (active)

CC(C(=O)Nc1ccccn1)N(c1ccccc1Cl)S(C)(=O)=O (stereo not drawn)
EC50 [5]: 10 µM (inconclusive)

COC(=O)[C@@]1(Cc2ccccc2CN=[N+]=[N-])N=C(c2ccc(OCCCO)cc2)O[C@H]1c1ccccc1
AC50 [6]: 17.4 µM (active)

O=C(c1nnsc1[S+]([O-])c1ccc(Cl)cc1)N1CCOCC1 (stereo not drawn)
IC50 (Beta Lactamase): 30.8 µM (inactive)
AC50 [7]: 13.4 µM (active)
EC50 [8]: 1.85 µM (active)
AC50 [9]: 7.35 µM (active)
EC50 [10]: 9.23 µM (active)
IC50 [11]: 181 µM (active)
AC50 [12]: 27.3 µM (active)
IC50 (CHO): 2.21 µM (active)
EC50 [13]: 2.13 µM (active)
AC50 [14]: 0.93 µM (active)
IC50 (Large T antigen): 31.6 µM (active)
AC50 [15]: 3.79 µM (active)
AC50 [16]: 2.43 µM (active)

O=S(=O)(c1ccc(NC(=S)NCCC(c2ccccc2)c2ccccc2)cc1)N1CCOCC1
EC50 [8]: 1.86 µM (active)
IC50 [17]: 13.2 µM (inactive)
IC50 [18]: > 69.5 µM (inactive)
EC50 [13]: > 30 µM (not active)

O=C(c1cccc(F)c1)N1CCCCN2[C@H](CO)[C@H](c3ccc(C#CC4(O)CCCC4)cc3)[C@@H]2C1
AC50 [19]: 2.86 µM (active)

C=CCOc1ccc(CN2CCC(CCOc3ccccc3)(C(=O)NCC)CC2)cc1Cl
AC50 [20]: > 30 µM (inactive)
AC50 [21]: > 52 µM (inactive)

CCSc1nnc(-c2ccccc2)o1
IC90 [22]: 31 µM (active)
IC90 [23]: 31 µM (active)
